Counter-ions that a name gives are not always drawn.

One series addresses T1, NK1 receptor (Homo sapiens, UniProt P25103).
T1 construct: Measurement of NK1 Receptor Mediated Intracellular [Ca^2+]; Mobilization in U251 MG Cells Using FLIPR; endogenous in cells; host or cells: U251 MG cells
In words: NK1 receptor mediated intracellular [Ca2+] mobilization in U251 MG cells using FLIPR. It is filed as cell-based. The note with it: antagonist potency against Substance P (EC80), normalized to 100 nM Aprepitant, read-out: U251MG (FLIPR pIC50) (converted). The method in brief: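 Fluo-4-loaded U251 MG cells were preincubated with compound (0.5% DMSO final), with any agonist effect read for 5 min, then 10 min more at 37 °C before Substance P at EC80. Peak FLIPR fluorescence change was read, and IC50 came from a four-parameter fit as the midpoint between fitted top and bottom.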

Series [1] can be described thus: Hepatic intrinsic clearance following incubation in human liver microsomes. It is filed as in vitro ADME. The note with it: NADPH regenerating system, 0-30 min, 37 °C. On the procedure: Hepatic Extraction Ratio from Hepatic Intrinsic Clearance Following Incubation in Human Liver Microsomes
The general procedure consists of an automated incubation system and LC-MS/MS analysis with human liver microsomes. Human liver microsomes are thawed rapidly in a waterbath at 37° C. and kept on ice until use. The human liver microsomes are diluted with 50 mM potassium phosphate buffer pH 7.4 to a protein concentration of 0.55 mg/mL. Test compounds and positive controls (Verapamil and Dextromethorphan, positive controls for CYP3A4 for CYP2D6 isoforms, respectively) are dissolved in methanol (or other appropriate solvent, if necessary) in order to obtain a 5 mM solution which is further diluted to the concentration of 50 μM. The stock solutions are prepared immediately before the test.
5 μL of 50 μM test compounds and controls are added to 445 μL-of the 0.55 mg/mL microsomes solution and the incubation mixture are pre-warmed at 37° C. for 5 minutes.
The incubation reactions are initiated by adding 50 μL of pre-warmed NADPH regenerating system to the incubation mixtures. 50 μL-aliquots will be taken from the incubation mixtures at: 0, 3, 6, 9, 15 and 30 minutes and the reactions are stopped by adding 100 μL of ACN containing Rolipram, used as generic Internal Standard (1S). Samples are then diluted with 120 μL of Milli-Q water and centrifuged at 3000 rpm for 10 minutes, prior the LC-MS/MS analysis.
The integrated peak areas for test compounds at the selected time points are divided by the respective peak areas of the IS and the percent of parent remaining is calculated by normalizing the peak area ratio of parent to IS at 0 min. Observed rate constant (kobs) for parent degradation is calculated by determining the slope of the line of the graph of the natural log of percentage parent remaining versus time of incubation. From the rate of depletion (min-1) and volume of the incubation (mL), clearance is estimated. This is scaled for the protein in the incubation relative to that in the intact liver, for all species (mL/min/g liver).
Values for the Human in vitro Clint are expressed as mL/min/g liver.
Assuming a liver weight of 25.7 g/kg and a liver blood flow of 20.7 mL/min/kg, the hepatic extraction ratio, Eh, can be derived from the Human in vitro Clint:
E.g. a Human in vitro Clint of 2.4 mL/min/g liver corresponds to a hepatic extraction ratio of 75%.
Some compounds of the present invention were tested according to example 121.
(In general: Liver microsomes are a subcellular fraction often used to study metabolism.)

T1 sequence (P25103 whole entry): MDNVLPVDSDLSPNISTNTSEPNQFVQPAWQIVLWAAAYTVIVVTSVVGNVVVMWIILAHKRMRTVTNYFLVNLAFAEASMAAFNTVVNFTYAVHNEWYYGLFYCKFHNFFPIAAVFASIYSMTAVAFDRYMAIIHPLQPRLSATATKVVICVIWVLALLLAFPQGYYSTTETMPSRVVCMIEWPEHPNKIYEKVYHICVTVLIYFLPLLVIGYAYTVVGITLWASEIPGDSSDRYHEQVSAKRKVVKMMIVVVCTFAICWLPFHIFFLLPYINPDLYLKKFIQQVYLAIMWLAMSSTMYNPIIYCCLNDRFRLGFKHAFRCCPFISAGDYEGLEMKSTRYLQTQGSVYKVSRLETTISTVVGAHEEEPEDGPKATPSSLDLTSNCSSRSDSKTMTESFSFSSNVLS

Consider `Cc1ccccc1[C@H]1[C@@H]2CC(CCO)(CCO)C(=O)N2CCN1C(=O)N(C)[C@@H](C)c1cc(Cl)cc(C(F)(F)F)c1` [Compound 90, (1S,8aS)-N-((S)-1-(3-chloro-5-(trifluoromethyl)phenyl)ethyl)-7,7-bis(2-hydroxyethyl)-N-methyl-6-oxo-1-o-tolylhexahydropyrrolo[1,2-a]pyrazine-2(1H)-carboxamide], for which, on NK1 receptor, the IC50 was 0.0398 nM. Besides, in series [1], the “Human in vitro Clint (mL/min/g liver)” value amounted to 7.6 mL/min/g liver.
For the compound `Cc1ccccc1C1C2CC(CO)C(=O)N2CCN1C(=O)N(C)[C@H](C)c1cc(C(F)(F)F)cc(C(F)(F)F)c1` (single isomer, unassigned) [Compound 56], on NK1 receptor, the IC50 was 0.112 nM. Further, the “Human in vitro Clint (mL/min/g liver)” value in series [1] amounted to 0.34 mL/min/g liver.
On the same counts, the results for `Cc1ccccc1[C@H]1[C@@H]2CC(CCO)(CCO)C(=O)N2CCN1C(=O)N(C)[C@H](C)c1cc(F)cc(C(F)(F)F)c1` [Compound 93, (1S,8aS)-N-((R)-1-(3-fluoro-5-(trifluoromethyl)phenyl)ethyl)-7,7-bis(2-hydroxyethyl)-N-methyl-6-oxo-1-o-tolylhexahydropyrrolo[1,2-a]pyrazine-2(1H)-carboxamide] are 0.0794 nM and 10 mL/min/g liver.
On the same counts, the results for `Cc1ccccc1C1C2CC(CN3CCOCC3)C(=O)N2CCN1C(=O)N(C)Cc1cc(C(F)(F)F)cc(C(F)(F)F)c1` (single isomer, unassigned) [Compound 50] are 0.224 nM and 2.9 mL/min/g liver.
As to `Cc1ccccc1[C@H]1[C@@H]2CC(CCO)(CCO)C(=O)N2CCN1C(=O)N(C)[C@H](C)c1cccc(C(F)(F)F)c1` [Compound 88, (1S,8aS)-7,7-bis(2-hydroxyethyl)-N-methyl-6-oxo-1-o-tolyl-N-((R)-1-(3-(trifluoromethyl)phenyl)ethyl)hexa hydropyrrolo[1,2-a]pyrazine-2(1H)-carboxamide], the IC50 at NK1 receptor was 0.0631 nM. In addition, in series [1], the “Human in vitro Clint (mL/min/g liver)” value was determined as 13 mL/min/g liver.
For `CCc1cc([C@@H](C)N(C)C(=O)N2CCN3C(=O)CC[C@H]3[C@@H]2c2ccccc2C)cc(C(F)(F)F)c1` [Compound 109, (1S,8aS)-N-((R)-1-(3-ethyl-5-(trifluoromethyl)phenyl)ethyl)-N-methyl-6-oxo-1-o-tolylhexahydropyrrolo[1,2-a]pyrazine-2(1H)-carboxamide], in that order: 0.1 nM and 13 mL/min/g liver.
As to `Cc1ccccc1C1C2CC(C)(C(=O)N(C)C)C(=O)N2CCN1C(=O)N(C)Cc1cc(C(F)(F)F)cc(C(F)(F)F)c1` (single isomer, unassigned) [Compound 26, 2-N-{[3,5-bis(trifluoromethyl)phenyl]methyl}-2-N,7-N,7-N,7-tetramethyl-1-(2-methylphenyl)-6-oxo-octahydropyrrolo[1,2-a]piperazine-2,7-dicarboxamide], at NK1 receptor, the IC50 is 0.661 nM. Besides, the “Human in vitro Clint (mL/min/g liver)” value in series [1] is 1.0 mL/min/g liver.
On the same counts, the results for `Cc1ccccc1[C@H]1[C@@H]2CC(CCO)(CCO)C(=O)N2CCN1C(=O)N(C)[C@@H](C)c1cc(C(F)(F)F)cc(C(F)(F)F)c1` [Compound 99, (1S,8aS)-N-((S)-1-(3,5-bis(trifluoromethyl)phenyl)ethyl)-7,7-bis(2-hydroxyethyl)-N-methyl-6-oxo-1-o-tolylhexahydropyrrolo[1,2-a]pyrazine-2(1H)-carboxamide] are 0.166 nM and 5.4 mL/min/g liver.
For `Cc1ccccc1C1C2CC(CO)CN2CCN1C(=O)N(C)Cc1cc(C(F)(F)F)cc(C(F)(F)F)c1` (single isomer, unassigned) [Compound 52, N-{[3,5-bis(trifluoromethyl)phenyl]methyl}-7-(hydroxymethyl)-N-methyl-1-(2-methylphenyl)-octahydropyrrolo[1,2-a]piperazine-2-carboxamide; methanesulfonic acid salt], in that order: 0.513 nM and 3.1 mL/min/g liver.
For `COc1cc([C@@H](CO)N(C)C(=O)N2CCN3C(=O)C(CCO)(CCO)C[C@H]3[C@@H]2c2ccccc2C)cc(C(F)(F)F)c1` [Compound 95, (1S,8aS)-N-((S)-2-hydroxy-1-(3-methoxy-5-(trifluoromethyl)phenyl)ethyl)-7,7-bis(2-hydroxyethyl)-N-methyl-6-oxo-1-o-tolylhexahydropyrrolo[1,2-a]pyrazine-2(1H)-carboxamide], in that order: 0.155 nM and 2.1 mL/min/g liver.
With `Cc1ccccc1[C@H]1[C@@H]2CC(CCO)(CCO)C(=O)N2CCN1C(=O)N(C)[C@H](CO)c1cc(C(F)(F)F)cc(C(F)(F)F)c1` [Compound 86, (1S,8aS)-N-((S)-1-(3,5-bis(trifluoromethyl)phenyl)-2-hydroxyethyl)-7,7-bis(2-hydroxyethyl)-N-methyl-6-oxo-1-o-tolylhexahydropyrrolo[1,2-a]pyrazine-2(1H)-carboxamide], the IC50 on NK1 receptor was 0.129 nM. Moreover, in series [1], the “Human in vitro Clint (mL/min/g liver)” value was determined as 2.8 mL/min/g liver.
On the same counts, the results for `Cc1ccccc1[C@H]1[C@@H]2CC3(CCN(C)CC3)C(=O)N2CCN1C(=O)N(C)[C@H](C)c1cc(C(F)(F)F)cc(C(F)(F)F)c1` [Compound 105, (1′S,8a′S)-N-((R)-1-(3,5-bis(trifluoromethyl)phenyl)ethyl)-N,1-dimethyl-6′-oxo-1′-o-tolyltetrahydro-1′H-spiro[piperidine-4,7′-pyrrolo[1,2-a]pyrazine]-2′(6′H)-carboxamide, formic acid salt] are 0.24 nM and 1.2 mL/min/g liver.
On the same counts, the results for `Cc1ccccc1C1C2CC3(CCN(C)CC3)C(=O)N2CCN1C(=O)N(C)Cc1cc(C(F)(F)F)cc(C(F)(F)F)c1` (racemic) [Compound 45, N-{[3,5-bis(trifluoromethyl)phenyl]methyl}-N,1-dimethyl-4′-(2-methylphenyl)-1′-oxo-hexahydro-1′H-spiro[piperidine-4,2′-pyrrolo[1,2-a]piperazine]-5′-carboxamide] are 0.166 nM and 1.9 mL/min/g liver.
For `COc1cc(CN(C)C(=O)N2CCN3C(=O)C(CCO)(CCO)C[C@H]3[C@@H]2c2ccccc2C)cc(C(F)(F)F)c1` [Compound 78, (1S,8aS)-7,7-bis(2-hydroxyethyl)-N-(3-methoxy-5-(trifluoromethyl)benzyl)-N-methyl-6-oxo-1-o-tolylhexahydropyrrolo[1,2-a]pyrazine-2(1H)-carboxamide], in that order: 0.112 nM and 4.6 mL/min/g liver.
As to `Cc1ccccc1[C@H]1[C@@H]2CC(CCO)(CCO)C(=O)N2CCN1C(=O)N(C)[C@H](C)c1cc(C(F)F)cc(C(F)(F)F)c1` [Compound 98, (1S,8aS)-N-((R)-1-(3-(difluoromethyl)-5-(trifluoromethyl)phenyl)ethyl)-7,7-bis(2-hydroxyethyl)-N-methyl-6-oxo-1-o-tolylhexahydropyrrolo[1,2-a]pyrazine-2(1H)-carboxamide], on NK1 receptor, the IC50 is 0.117 nM. In addition, the “Human in vitro Clint (mL/min/g liver)” value in series [1] is recorded as 4.0 mL/min/g liver.

These data come from patent US9181259B2 (LEO PHARMA A/S, priority 2012, dated 2015).
